Results from US8053442B2, “Organic compounds” (Novartis AG, priority 2008, dated 2011).

Key:
[1] = test system: Plasmodium falciparum, NF54 (sensitive to all known drugs); assay: In vitro assay, 3H-hypoxanthine incorporation, Plasmodium falciparum NF54; assay type: cell-based; conditions: NF54 (CQ sensitive P. falciparum strain)
Procedure: The compounds of the invention and standard compounds are tested in vitro against two standard parasite strains: Plasmodium falciparum, NF54 (sensitive to all known drugs) and Plasmodium falciparum, K1 (chloroquine and pyrimethamine resistant). Chloroquine diphosphate (Sigma C6628), artemisinin (Sigma 36159-3), artesunate (Mepha), atovaquone (GSK) and proguanil (Roche) are used as the standard drugs. The testing is carried out in 96-well plates (Costar™ 96-well microtiter plates).
Smears of the stock cultures of the two strains are prepared and the parasitemia for each culture is determined. Cultures with parasitemia lower than 2% are not used.
Stock compound solutions are prepared in DMSO at 10 mg/mL. If insoluble in DMSO, other solvents may be used according to the recommendations of the supplier. […]
The plates are harvested with a Betaplate™ cell harvester (Wallac, Zurich, Switzerland), which transfers the red blood cells onto a glass fiber filter and washes the filters with distilled water. The dried filters are inserted into a plastic foil with 10 mL of scintillation fluid and counted in a Betaplate™ liquid scintillation counter (Wallac, Zurich, Switzerland). The results are recorded as counts per minute (cpm) per well at each drug concentration.
Data is transferred into a graphic programme (e.g. EXCEL) and expressed as percentage of the untreated controls. […]

[2] = test system: Plasmodium berghei, GFP ANKA strain; assay: In vivo assay, P. berghei mouse model; conditions: read-out: ED50 in P. berghei mouse model
Procedure: The Plasmodium berghei, GFP ANKA strain described in B. Franke-Fayard et al., Mol. Biochem. Parasitol., 137(1), 23-33, 2004 is used. This strain is maintained in female NMRI mice (20-22 g). The mice are kept in Standard Macrolon cages type II under standard conditions at 22° C. and 60-70% relative humidity, on a diet of pellets (PAB45—NAFAG 9009, Provimi Kliba AG, CH-4303 Kaiseraugst, Switzerland) and water ad libitu. Chloroquine (Sigma C6628) and artemisinin (Sigma 36, 159-3) are used as the standard drugs.
Stock compound solutions are prepared in 100% DMSO (suspended) or a solution consisting of 70% Tween-80 (d=1.08 g/mL) and 30% ethanol (d=0.81 g/mL), followed by a 10-fold dilution in H2O. […]
On days 1, 2 and 3 (24, 48 and 72 hours post-infection), the experimental groups are treated with a single daily dose per oral dosing (p.o). […] The dosage is determined by a preliminary toxicity test. […]
On day 4, 24 hours after the last drug treatment, 1 μL tail blood is taken and dissolved in 1 mL PBS buffer. Parasitaemia is determined with a FACScan (Becton Dickinson) by counting 100,000 red blood cells. The difference between the mean value of the control group and those of the experimental groups is calculated and expressed as a percentage relative to the control group (=activity). […] The survival of the animals is monitored for up to 30 days. […]

C[C@@H]1Cc2c([nH]c3cc(Cl)c(F)cc23)[C@]2(N1)C(=O)Nc1ccc(Cl)cc12 [Example 50, (1S,3R)-5′,7-Dichloro-6-fluoro-3-methyl-2,3,4,9-tetrahydrospiro[β-carboline-1,3′-indol]-2′(1′H)-one]
IC50 [1]: 0.9 nM | ED50 [2]: 1.2 mg/kg

C[C@H]1Cc2c([nH]c3ccc(Cl)cc23)[C@@]2(N1)C(=O)Nc1ccc(Cl)cc12 [Example 62, (1R,3S)-5′,6-Dichloro-3-methyl-2,3,4,9-tetrahydrospiro[β-carboline-1,3′-indol]-2′(1′H)-one]
IC50 [1]: 3.4 nM | ED50 [2]: 1.5 mg/kg
